One compound from paper PMC10571041, “Activity of Single Insect Olfactory Receptors Triggered by Airborne Compounds Recorded in Self-Assembled Tethered Lipid Bilayer Nanoarchitectures” (ACS Applied Materials & Interfaces, 2023) can be followed below.

The target of the assay is T1, EcorOBP15-m1 (odorant binding protein) (Eupeodes corollae, UniProt A0A8F9RZG6, F82L).
T1 construct: recombinant protein expressed in E. coli
T1 sequence (A0A8F9RZG6 22-145 F82L): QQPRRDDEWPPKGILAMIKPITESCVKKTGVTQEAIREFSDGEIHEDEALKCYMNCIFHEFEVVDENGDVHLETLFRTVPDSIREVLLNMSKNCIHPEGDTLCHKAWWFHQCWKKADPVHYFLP
In words: competitive fluorescence displacement of 1-NPN.

`CCCCCC(=O)OCC` [ethyl hexanoate] registered a Kd of 7.4 µM.

For orientation: Kd means the concentration at which binding is half-saturated. A higher Kd goes with weaker binding.
